Measurements as given in patent publication US20250101062A1, “ANTIMICROBIAL PEPTIDES” (Board of Regents of the University of Nebraska, priority 2023, published 2025).
Where no end group is shown, it is not given here.

Legend:
[1] = tested on: S. aureus USA300 LAC biofilms; experiment: Disruption of preformed biofilms in vitro (XTT); type: cell-based, Staphylococcus aureus
Protocol: Effects of Peptides on Established Biofilms in Vitro. Bacteria (S. aureus USA300 LAC and E. coli E423-17) were grown in rich TSB media overnight. A second inoculation was made the next day to reach an exponential phase (OD600˜0.4). Microtiter plates (96 wells, Corning Costar Cat no. 3595), after aliquoting with 180 μL of the culture to each well, were incubated at 37° C. for 24 hours to form biofilms in rich TSB. Media were aspirated post incubation, and the attached biofilms were washed with 1×PBS to remove the planktonic bacteria. […] Biofilms treated with water served as the positive control, while media without bacterial inoculation served as the negative control. Live cells in the biofilms were quantitated using XTT as described above. Absorbance was read at 450 nm (only media with XTT containing wells served as the blank) using a ChroMate™ microtiter plate reader. Percentage biofilm growth for the peptide was plotted by assuming 100% biofilm growth in bacterial control alone. The data were represented as mean±SD; plots were generated using GraphPad prism 7, where * indicates p<0.05, **p<0.01, and ***P<0.001, and ****p<0.0001 (one-way analyses of variance).
LL-37 is known to inhibit bacterial biofilms (Overhage, et al. (2008) Infect. Immun., 76:4176-4182). However, it was unable to disrupt preformed MRSA biofilms in rich media (Mishra, et al. (2016) ACS Med. Chem. Lett., 7:117-121). Next, it was determined whether the diluted MHB medium could be useful to detect biofilm-disrupting activity for LL-37 against MRSA. An established procedure (Mishra, et al. (2016) ACS Med. Chem. Lett., 7:117-121; Duplantier, et al. (2013) Front. Immunol., 4:143) was used wherein biofilms were formed and washed as usual to remove planktonic cells. The biofilms were then treated with peptides in 12.5% MHB for 24 hours. Finally, live cells were quantified with XTT (ATCC). FIG. 2 compares the levels of live cells of MRSA in the preformed biofilms after 24 hour treatment. […] Of note is a similar pattern for both peptides in 12.5% MHB treated at various concentrations.
Bacteria (S. aureus USA300 LAC or P. aeruginosa E411-17) were grown up in TSB media overnight. A second inoculation was made the next day to reach an exponential phase (OD600˜0.4). Microtiter plates (96 wells, Corning Costar Cat No. 3595), after aliquoting with 180 μL of the culture to each well, were incubated at 37° C. for 24 hours to form biofilms in rich TSB. Media were aspirated post incubation and the attached biofilms were washed with 1×PBS to remove the planktonic bacteria. […] Biofilms treated with water served as the positive control while media without bacterial inoculation served as the negative control. Live cells in the biofilms were quantitated using the XTT as described above. Absorbance was read at 450 nm (only media with XTT containing wells served as the blank) using a ChroMate® microtiter plate reader. Percentage biofilm growth (the plot legend is antibiofilm activity) for the peptides was plotted by assuming 100% biofilm growth in bacterial control alone. The data were represented as mean±SD, plots were generated using GraphPad prism 7, where * indicates p<0.05, ** p<0.01, and ***P<0.001, and ****p<0.0001 (one-way analyses of variance).

[2] = Effect of MHB dilution on antibacterial activity of a panel of antibiotics; type: cell-based; settings: MHB from 100 to 12.5%
[3] = tested on: human keratinocyte HaCaT cells; experiment: Cell viability assay (MTS); type: cell-based
Protocol: Human keratinocyte HaCaT cells were grown in DMEM/high glucose (Hyclone, UT) containing 10% fetal bovine serum (Mediatech, Corning, Manassas, VA). […] The mixture was incubated at 37° C. in 5% CO2 for 24 hours.
HepG2 cells were cultured in ATCC-formulated Eagle's Minimum Essential Medium with 10% FBS. A549 cells were grown in ATCC-formulated F-12K Medium containing 10% FBS.

chymotrypsin = biological target: T1, chymotrypsin (Bos taurus, UniProt P00766); type: in vitro ADME, mammalian
T1 construct: purchased Thermo Fisher Scientific
Protocol: (§1) A solution of peptide/protease (40:1 molar ratio) was made in phosphate-buffered saline (PBS; pH 7.1, Gibco, NY) and incubated at 37° C. for 1 hour. As controls, peptides without proteases were also incubated in the same manner. Then, aliquots of 10 μL were transferred to a 96-well polystyrene microplate and mixed with the exponential-phase MRSA USA300 culture as performed in the antibacterial activity assays above.

pepsin = biological target: T2, pepsin (Sus scrofa, UniProt P00791); type: in vitro ADME, mammalian
T2 construct: purchased Thermo Fisher Scientific
T2 sequence (P00791 60-385): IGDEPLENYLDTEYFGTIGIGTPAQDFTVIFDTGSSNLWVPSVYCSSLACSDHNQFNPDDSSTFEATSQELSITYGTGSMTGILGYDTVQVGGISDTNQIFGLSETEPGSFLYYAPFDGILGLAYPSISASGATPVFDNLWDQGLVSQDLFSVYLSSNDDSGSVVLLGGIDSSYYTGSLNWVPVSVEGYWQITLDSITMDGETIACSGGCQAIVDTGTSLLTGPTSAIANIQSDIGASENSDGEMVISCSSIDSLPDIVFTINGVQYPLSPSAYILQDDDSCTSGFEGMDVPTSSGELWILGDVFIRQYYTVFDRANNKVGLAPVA
Protocol: as §1

CC[C@H](C)[C@H](NC(=O)[C@H](CCCCN)NC(=O)[C@H](CCC(=O)O)NC(=O)[C@H](CCCCN)NC(=O)[C@H](CO)NC(=O)[C@H](CCCCN)NC(=O)[C@H](CCCNC(=N)N)NC(=O)[C@H](Cc1ccccc1)NC(=O)[C@H](Cc1ccccc1)NC(=O)[C@H](CC(=O)O)NC(=O)CNC(=O)[C@H](CC(C)C)NC(=O)[C@@H](N)CC(C)C)C(=O)NCC(=O)N[C@@H](CCCCN)C(=O)N[C@@H](CCC(=O)O)C(=O)N[C@@H](Cc1ccccc1)C(=O)N[C@@H](CCCCN)C(=O)N[C@@H](CCCNC(=N)N)C(=O)N[C@H](C(=O)N[C@H](C(=O)N[C@@H](CCC(N)=O)C(=O)N[C@@H](CCCNC(=N)N)C(=O)N[C@H](C(=O)N[C@@H](CCCCN)C(=O)N[C@@H](CC(=O)O)C(=O)N[C@@H](Cc1ccccc1)C(=O)N[C@@H](CC(C)C)C(=O)N[C@@H](CCCNC(=N)N)C(=O)N[C@@H](CC(N)=O)C(=O)N[C@@H](CC(C)C)C(=O)N[C@H](C(=O)N1CCC[C@H]1C(=O)N[C@@H](CCCNC(=N)N)C(=O)N[C@H](C(=O)N[C@@H](CCC(=O)O)C(=O)N[C@@H](CO)C(=O)O)[C@@H](C)O)C(C)C)[C@@H](C)CC)C(C)C)[C@@H](C)CC [LL-37]
peptide concentration showing biofilm disruption ([1]; 24 h preformed biofilm, 12.5% MHB): 32 µM | antibiofilm activity ([1]; 24 h preformed biofilm, 100% MHB): essentially no antibiofilm activity

CCCCCCCCCC(=O)N[C@@H](Cc1c[nH]c2ccccc12)C(=O)N[C@H](CC(N)=O)C(=O)N[C@@H](CC(=O)O)C(=O)N[C@@H]1C(=O)NCC(=O)N[C@@H](CCCN)C(=O)N[C@@H](CC(=O)O)C(=O)N[C@H](C)C(=O)N[C@@H](CC(=O)O)C(=O)NCC(=O)N[C@H](CO)C(=O)N[C@@H]([C@H](C)CC(=O)O)C(=O)N[C@@H](CC(=O)c2ccccc2N)C(=O)O[C@@H]1C [Daptomycin]
change in MIC with dilution of MHB [2]: essentially no changes

RRWWRWWR-NH2 [W543]
toxicity to human HaCaT skin cells [3]: least toxic | activity after protease incubation (chymotrypsin): started to lose activity | activity after protease incubation (pepsin): retained antibacterial activity | effect on preformed biofilms ([1]; 48 or 72 hour preformed biofilms): Better disruptive effects than daptomycin | effect on preformed biofilms ([1]; 24 hours preformed biofilms, 32 μM): essentially eliminated
